Measurements reported in ChEMBL document CHEMBL1287757, “Straightforward synthesis of triazoloacyclonucleotide phosphonates as potential HCV inhibitors” (Bioorg Med Chem Lett, 2010).
Active and inactive are the calls of the source. The rule behind the calls is not given here.

Assays:
[1] = Selectivity ratio, ratio of CC50 for Huh5.2 cells to IC50 for HCV infected in Huh5.2 cells; assay type: cell-based; details: human, Huh5.2 cells (CC50) and HCV-infected Huh5.2 cells (IC50)
Hepatitis C virus [2] = test: Antiviral activity against HCV infected in Huh5.2 cells assessed as inhibition of viral replication by luciferase reporter gene assay; assay type: functional, organism-based, Hepacivirus hominis; details: Huh-5-2
[3] = tested on: Human immunodeficiency virus; test: Antiviral activity against HIV assessed as inhibition of viral replication; assay type: functional, organism-based
[4] = Cytotoxicity against human HuH5.2 cells; assay type: cell-based, Huh-5-2
Hepatitis C virus [5] = test: Antiviral activity against HCV infected in Huh5.2 cells assessed as concentration required to inhibit viral replication without causing an antimetabolic effect; assay type: functional, Hepacivirus hominis

SMILES	selectivity ratio [1]	IC50 (Hepatitis C virus [2]) [µM]	Activity [3]	CC50 [4] [µM]	Imax (Hepatitis C virus [5]) [%]
Nc1ncnc2c1ncn2Cc1cn(CCP(=O)(O)O)nn1	< 1	> 35	inactive	35	
O=c1ccn(Cc2cn(CP(=O)(O)O)nn2)c(=O)[nH]1	4.42	29	inactive	131	
Cc1cn(Cc2cn(CCP(=O)(O)O)nn2)c(=O)[nH]c1=O	> 15	20	inactive	> 300	79.28
O=c1ccn(Cc2cn(CCP(=O)(O)O)nn2)c(=O)[nH]1	> 20	16	inactive	> 300	75.47
Cc1cn(Cc2cn(CP(=O)(O)O)nn2)c(=O)[nH]c1=O	> 13	26	inactive	> 300	
Nc1ncnc2c1ncn2Cc1cn(CP(=O)(O)O)nn1	> 20	16	inactive	> 300	80.65
